# Columns and labels:
# Type in all cases: in vivo
# [1] = system: ryegrass, Italian (Italian ryegrass, Lolium multiflorum); test: Test A preemergence; conditions: Preemergence; for Plant response rating, Ryegrass, Italian: 125 g ai/ha, visual injury after approximately 10 d, 0 to 100 scale where 0 is no effect and 100 is complete control; for Ryegrass, Italian plant response rating (0 to 100 scale, 0 is no effect, 100 is complete control): 500 g ai/ha, visual injury approx. 10 d
# How it was run: (§1)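 Visual injury, scored on a 0–100 scale relative to untreated controls, was recorded about 10 d after application. Treatments were a preemergence soil spray over planted seeds or a postemergence spray on plants at the one- to two-leaf stage, 2 to 10 cm tall, all in loam soil–sand blend in the greenhouse.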
# [2] = system: pigweed (Amaranthus retroflexus); test: Test A preemergence; conditions: Preemergence; for Plant response rating, Pigweed: 125 g ai/ha, visual injury after approximately 10 d, 0 to 100 scale where 0 is no effect and 100 is complete control; for Pigweed plant response rating (0 to 100 scale, 0 is no effect, 100 is complete control): 500 g ai/ha, visual injury approx. 10 d
# [3] = system: barnyardgrass (Echinochloa crus-galli); test: Test A preemergence; conditions: Preemergence; for Plant response rating, Barnyardgrass: 125 g ai/ha, visual injury after approximately 10 d, 0 to 100 scale where 0 is no effect and 100 is complete control; for Barnyardgrass plant response rating (0 to 100 scale, 0 is no effect, 100 is complete control): 500 g ai/ha, visual injury approx. 10 d
# How it was run: as §1
# [4] = system: giant foxtail (Setaria faberii); test: Test A preemergence; conditions: Preemergence; for Plant response rating, Foxtail, Giant: 125 g ai/ha, visual injury after approximately 10 d, 0 to 100 scale where 0 is no effect and 100 is complete control; for Foxtail, Giant plant response rating (0 to 100 scale, 0 is no effect, 100 is complete control): 500 g ai/ha, visual injury approx. 10 d
# How it was run: as §1
# Kochia (Kochia scoparia) [5] = test: Test A preemergence; conditions: Preemergence; for Plant response rating, Kochia: 125 g ai/ha, visual injury after approximately 10 d, 0 to 100 scale where 0 is no effect and 100 is complete control; for Kochia plant response rating (0 to 100 scale, 0 is no effect, 100 is complete control): 500 g ai/ha, visual injury approx. 10 d
# How it was run: as §1
# [6] = system: ragweed (common ragweed, Ambrosia elatior); test: Test A preemergence; conditions: Preemergence; for Plant response rating, Ragweed: 125 g ai/ha, visual injury after approximately 10 d, 0 to 100 scale where 0 is no effect and 100 is complete control; for Ragweed plant response rating (0 to 100 scale, 0 is no effect, 100 is complete control): 500 g ai/ha, visual injury approx. 10 d
# How it was run: as §1
# rice (Oryra sativa) = test: Test B flooded paddy test; conditions: Flood, 0 to 100 scale where 0 is no effect and 100 is complete control, 13 to 15 d
# How it was run: (§2)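 Response scored visually against untreated controls, 0 = no effect and 100 = complete control, 13–15 d after treatment in the greenhouse. Compounds added to paddy water held 3 cm above soil surface. Treatment given at 2-leaf stage.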
# [7] = system: barnyardgrass (Echinochloa crus-galli); test: Test B flooded paddy test; conditions: Flood, 0 to 100 scale where 0 is no effect and 100 is complete control, 13 to 15 d
# How it was run: as §2
# [8] = system: sedge, umbrella (small-flower umbrella sedge, Cyperus difformis); test: Test B flooded paddy test; conditions: Flood, 0 to 100 scale where 0 is no effect and 100 is complete control, 13 to 15 d
# How it was run: as §2
# [9] = system: ducksalad (Heteranthera limosa); test: Test B flooded paddy test; conditions: Flood, 0 to 100 scale where 0 is no effect and 100 is complete control, 13 to 15 d
# How it was run: as §2
# [10] = system: blackgrass (Alopecurus myosuroides); test: Test A postemergence; conditions: for Blackgrass plant response rating: 125 g ai/ha, postemergence, visual injury rating on 0 to 100 scale (0 no effect, 100 complete control), approx. 10 d; for Plant response rating, Blackgrass: Postemergence, 500 g ai/ha, 0 to 100 scale where 0 is no effect and 100 is complete control
# How it was run: as §1
# [11] = system: ryegrass, Italian (Italian ryegrass, Lolium multiflorum); test: Test A postemergence
# How it was run: as §1
# corn (Zea mays) = test: Test A postemergence
# How it was run: as §1
# [12] = system: Galium (catchweed bedstraw, Galium aparine); test: Test A postemergence
# How it was run: as §1
# [13] = system: wheat (Triticum aestivum); test: Test A postemergence
# How it was run: as §1
# [14] = system: pigweed (Amaranthus retroflexus); test: Test A postemergence
# How it was run: as §1
# [15] = system: barnyardgrass (Echinochloa crus-galli); test: Test A postemergence; conditions: for Barnyardgrass plant response rating: 125 g ai/ha, postemergence, visual injury rating on 0 to 100 scale (0 no effect, 100 complete control), approx. 10 d; for Plant response rating, Barnyardgrass: Postemergence, 500 g ai/ha, 0 to 100 scale where 0 is no effect and 100 is complete control
# How it was run: as §1
# [16] = system: giant foxtail (Setaria faberii); test: Test A postemergence
# How it was run: as §1
# Kochia (Kochia scoparia) [17] = test: Test A postemergence
# How it was run: as §1
# [18] = system: ragweed (common ragweed, Ambrosia elatior); test: Test A postemergence
# How it was run: as §1
# [19] = 125 g ai/ha, postemergence, visual injury rating on 0 to 100 scale (0 no effect, 100 complete control), approx. 10 d
# [20] = Postemergence, 500 g ai/ha, 0 to 100 scale where 0 is no effect and 100 is complete control
# [21] = 125 g ai/ha, postemergence, visual rating after approx. 10 d, 0 to 100 scale (0 no effect, 100 complete control)
Compound,"Plant response rating, Ryegrass, Italian [1]","Ryegrass, Italian plant response rating (0 to 100 scale, 0 is no effect, 100 is complete control) [1]","Plant response rating, Pigweed [2]","Pigweed plant response rating (0 to 100 scale, 0 is no effect, 100 is complete control) [2]","Plant response rating, Barnyardgrass [3]","Barnyardgrass plant response rating (0 to 100 scale, 0 is no effect, 100 is complete control) [3]","Plant response rating, Foxtail, Giant [4]","Foxtail, Giant plant response rating (0 to 100 scale, 0 is no effect, 100 is complete control) [4]","Plant response rating, Kochia (Kochia (Kochia scoparia) [5])","Kochia plant response rating (0 to 100 scale, 0 is no effect, 100 is complete control) (Kochia (Kochia scoparia) [5])","Plant response rating, Ragweed [6]","Ragweed plant response rating (0 to 100 scale, 0 is no effect, 100 is complete control) [6]",Blackgrass plant response rating [10],"Plant response rating, Blackgrass [10]","Plant response rating, Ryegrass, Italian [11, 20]","Plant response rating, Corn (corn (Zea mays); [20])","Plant response rating, Galium [12, 20]","Plant response rating, Wheat [13, 20]","Plant response rating, Pigweed [14, 20]",Barnyardgrass plant response rating [15],other results
O=C1NCC(c2ccc(C(F)(F)F)c(F)c2)C1C(=O)Nc1ccc(F)cc1F (racemic) [Compound 522],30,60,70,80,90,90,90,90,60,60,0,30,30,50,40,20,60,20,40,60,"Plant response rating, Rice (rice (Oryra sativa); 250 g ai/ha): 0; Plant response rating, Barnyardgrass ([7]; 250 g ai/ha): 40; Plant response rating, Sedge, Umbrella ([8]; 250 g ai/ha): 0; Plant response rating, Ducksalad ([9]; 250 g ai/ha): 100; Ryegrass, Italian plant response rating [11, 19]: 20; Corn plant response rating (corn (Zea mays); [19]): 0; Galium plant response rating [12, 19]: 30; Wheat plant response rating [13, 19]: 0; Pigweed plant response rating [14, 19]: 20; Plant response rating, Barnyardgrass [15]: 80; Foxtail, Giant plant response rating [16, 19]: 90; Plant response rating, Foxtail, Giant [16, 20]: 90; Kochia plant response rating (Kochia (Kochia scoparia) [17]; [19]): 20; Plant response rating, Kochia (Kochia (Kochia scoparia) [17]; [20]): 50; Ragweed plant response rating [18, 19]: 0; Plant response rating, Ragweed [18, 20]: 0"
O=C1NCC(c2ccc(Oc3ccccc3)cc2)C1C(=O)Nc1cccc(F)c1F (racemic) [Compound 536],0,0,0,0,0,0,0,20,0,0,0,0,0,0,0,0,0,0,0,0,"Plant response rating, Rice (rice (Oryra sativa); 500 g ai/ha): 15; Plant response rating, Barnyardgrass ([7]; 500 g ai/ha): 30; Plant response rating, Sedge, Umbrella ([8]; 500 g ai/ha): 0; Plant response rating, Ducksalad ([9]; 500 g ai/ha): 0; Plant response rating, Ryegrass, Italian [11, 21]: 0; Plant response rating, Corn (corn (Zea mays); [21]): 0; Plant response rating, Galium [12, 21]: 0; Plant response rating, Wheat [13, 21]: 0; Plant response rating, Pigweed [14, 21]: 0; Plant response rating, Barnyardgrass [15]: 0; Plant response rating, Foxtail, Giant [16, 21]: 0; Plant response rating, Foxtail, Giant [16, 20]: 30; Plant response rating, Kochia (Kochia (Kochia scoparia) [17]; [21]): 0; Plant response rating, Kochia (Kochia (Kochia scoparia) [17]; [20]): 0; Plant response rating, Ragweed [18, 21]: 0; Plant response rating, Ragweed [18, 20]: 0"

# Reference: US12077503B2, “Substituted cyclic amides and their use as herbicides” (FMC CORPORATION, priority 2015, dated 2024)
